Test results as given in patent US20260345609A1, “METHODS FOR PROMOTING PERSISTENCE OF CELL THERAPY” (Legend Biotech Ireland Limited, priority 2022, published 2026).

What was measured:
[1] = test system: LUCAR-20SD cells; assay: In vitro mixed lymphoid (MLR) model with LUCAR-20SD cells, UnT and Raji cells: graft LUCAR-20SD cells; format: cell-based, human; conditions: 0.05 μM, 1 μM, 2 μM MTX
Method: To evaluate the ability of LUCAR-20SD cells to tolerate allogeneic T cell rejection, an in vitro mixed lymphoid (MLR) model was established.
Using the T cells from a random healthy donor (B donor), LUCAR-20SD cells were prepared following the method in Example 1, as the graft cells. Un-transduced T cells (UnT) from another random healthy donor (Adonor) were also prepared, as the host cells.
The cell density of CD20 positive cells (lymphoma cell lines Raji, ATCC, CCL-86) was adjusted to 1×10^6 cells/mL. Raji cells were treated with 20 μg/mL mitomycin at 37° C. for 3 h, washed three times with 10 mL DPBS, and were resuspended in the culture medium. 20×10^6 untransduced T cells (UnT, T cell donor A), 1×10^6 LUCAR-20SD cells (T cell donor B), and 5×10^6 treated lymphoma cells Raji were mixed and cultured in the medium. The cell mixture was divided into 4 groups, and 0 μM MTX, 0.05 μM MTX, 1 μM MTX, or 2 μM MTX was added, respectively. […] According to the formula: fold change of cell number (UnT)=[cell number counted by AOPI×(CAR-CD5+%)]/20, fold change of cell number (LUCAR-20SD cells)=[cell number counted by AOPI×(CAR+CD5+%)]/1, the cell proliferation curves of UnT and LUCAR-20SD cells were plotted.

[2] = test system: human gastric cancer cells NUGC4; assay: In vivo efficacy in subcutaneous NUGC4 gastric cancer xenograft model, tumor volume; parameters: species or system NCG immunodeficient mice; human tumor cells; conditions: G5, 22.635 mg/kg MTX alone i.p., day5 to day35, p>0.05
From the text: Refer to Example 1, the fusion gene sequence of SIV Nef M116-IRES-CD8α SP Claudin18.2 VHH-CD8α Hinge-CD8α TM-4-1BB-ITAM010 (SEQ ID NO: 5) was cloned into the expression plasmid pLVX-hEF1α to form the M1645 expression plasmid. The anti-Claudin18.2 VHH, as well as the antigen binding domain of CAR, have been disclosed in PCT/CN2020/139143. TGB23-6-IRES-DHFR L22F/F31S (SEQ ID NO: 7) was cloned into the expression plasmid pLVX-hEF1α to form the M1647 expression plasmid. The fusion protein of TGB23-6 is a signal converter, and has been described in PCT/CN2022/087016. To obtain LUCAR-GC cells, M1645 and M1647 were transduced into T cells. The production of Virus vector and the transduction of primary T were completed with reference to Example 1.
Severely immunodeficient NCG mice were used for in vivo efficacy evaluation. On day −14 before treatment, NCG immunodeficient mice were inoculated subcutaneously with tumor cells (3×10^6 human gastric cancer cells NUGC4/mouse). […] During the experiment, animal status, survival, tumor volume and body weight were measured twice a week. […] The proportion of transplanted cells (hCD45+%/live) in the peripheral blood of mice was counted.

[3] = test system: host PBMC cells (HLA-A2+); assay: Effect of combination of fludarabine, cyclophosphamide and MTX on host immune cells (HLA-A2+) in peripheral blood; format: in vivo, NCG mice; human host cells; conditions: day 13
From the text: pLVX-Puro vector purchased from Clontech was subjected to the digestion reaction of ClaI and EcoRI restriction enzymes. The CMV promoter was replaced with the human EF1α promoter (GenBank: J04617.1) to obtain the pLVX-hEF1α vector. The fusion gene sequence of SIV Nef_M116-P2A-DHFR L22F/F31S-IRES-CD8α SP-anti-BCMA antibody-CD8α Hinge-CD8αTM-4-1BB-ITAM010, hereinafter referred to as “LUCAR-BCMA” (SEQ ID NO: 6) was cloned into the expression plasmid pLVX-hEF1α to form the LUCAR-BCMA expression plasmid named as M1588. The anti-BCMA antibody contained herein has been disclosed in PCT/CN2020/136570. With reference to the virus vector production and primary T transduction in Example 1, LUCAR-BCMA cells were prepared.
Severely immunodeficient NCG mice were used for in vivo efficacy evaluation. The specific embodiment is as follows: at day-5.5 mice were intravenously inoculated with 20×10^6 PBMC cells (HLA-A2+) to construct host immune cells, and at day0 the mice were intravenously inoculated with 3×10^6 LUCAR-BCMA cells (HLA-A2−) as transplanted cells. The modeled mice were then treated with the following different combination of fludarabine, cyclophosphamide, and MTX to evaluate the inhibitory effect of the combination regimen on the host's immune system. “/” in Table 2 means no drug was administrated. The dose of fludarabine in each experimental group was 0.1623 mg/mice, the dose of cyclophosphamide was 1.623 mg/mice and the dose of MTX was 15.15 mg/kg (G3 and G4) or 75.45 mg/kg (G5 and G6). At day 13, the end point of the experiment, the peripheral blood white blood cells (WBC) of mice were measured. The peripheral blood cells of mice were resuspended in DPBS, and then 1 μL of FITC anti human CD45 (Biolegend, 304038) and 1 μL of PE anti human HLA-A2 (Biolegend, 343306) were added into the cell resuspension and incubated at 4° C. for 30 min. […] The proliferation of host PBMC cells in the peripheral blood of mice was evaluated, which reflected the effect of different combinations of drugs on host immunity in vivo.

CN(Cc1cnc2nc(N)nc(N)c2n1)c1ccc(C(=O)N[C@@H](CCC(=O)O)C(=O)O)cc1 [MTX, methotrexate]
protective effect on heterologous LUCAR-20SD cells [1]: good protective effect on heterologous LUCAR-20SD cells | tumor volume compared with control G1 and G2 [2]: not significantly different | inhibitory effect of MTX on the host immune cells, dose relation ([3]; 15.15 mg/kg (G3) vs 75.45 mg/kg (G5)): dose-dependent | inhibitory effect on proliferation of host cells ([3]; FC regimen or MTX alone): the inhibitory effect was limited | number of host cells in the peripheral blood compared with G1 blank group ([3]; G2: FC, G3: 15.15 mg/kg MTX, G5: 75.45 mg/kg MTX): lower than that of the G1 blank group
